A short description of data set [1]: General solubility protocol (PBS, pH 7.4). As to conditions: PBS buffer, aqueous buffer, kinetic from dmso stock, pH 7.4, 25° C. The class given is physicochemical. The method, then:
Into a 96-well rack, 15 μL of stock solution (10 mM) of each sample was placed. Into each vial of a cap-less Solubility Sample plate 485 μL of buffer was added. The assay was performed in duplicate. To each vial one stir stick was added and each vial was sealed using a molded PTFE/Silicone plug. The Solubility Sample plate was then transferred to an Eppendorf Thermomixer Comfort plate shaker and shake at 25° C. at 1100 RPM for 2 hours. […] Using a vacuum manifold, all the samples were filtered. An aliquot of 5 μL was taken from the filtrate and 5 μL blank DMSO followed by addition of 490 μL of a mixture of H2O and acetonitrile containing an internal standard (1:1). The dilution factor may be changed according to the solubility value and the LC/MS signal response.

Data set [2] in a line: Liver microsomes stability, human. The class given is in vitro ADME. The following applies: 1 μM, Table 3, read-out: Metabolic Stability Half-life, human. The method, then: (§1) A 100 μM test compound solution and PC solution (verapamil) was prepared by adding 2 μL of 10 mM stock solution in DMSO to 198 μL of 50% acetonitrile/50% water.
(§2) Two separate experiments were performed as follows:
(§3) a) With Cofactors (NADPH): 25 μL of 10 mM NADPH was added to the incubations. The final concentrations of microsomes and NADPH were 0.5 mg/mL and 1 mM, respectively.
(§4) b) Without Cofactors (NADPH): 25 μL of 100 mM Phosphate buffer was added to the incubations. The final concentration of microsomes was 0.5 mg/mL. The mixture was pre-warmed at 37° C. for 10 minutes.
(§5) The reaction was started with the addition of 2.5 μL of 100 µM control compound or test compound solutions. Verapamil was used as positive control in this study. The final concentration of test compound or control compound was 1 μM. The incubation solution was incubated in a water bath at 37° C.
(§6) Aliquots of 30 μL were taken from the reaction solution at 0.5, 15, 30, 45 and 60 minutes. The reaction was stopped by the addition of 5 volumes of cold acetonitrile with IS (100 nM alprazolam, 200 nM caffeine and 100 nM tolbutamide).
(§7) Samples were then centrifuged at 3,220 g for 40 minutes. An aliquot of 100 μL of the supernatant was mixed with 100 μL of ultra-pure H2O and then used for LC-MS/MS analysis.
(§8) Single dose PK parameters were also determined for Compound 143, a deuterated derivative of Compound 1, according to the methods described herein. […] Metabolic stability was assessed by measuring the half-life of the test compounds in human and mouse liver microsomes.

Data set [3] in a line: Liver microsomes stability, mouse. The class given is in vitro ADME. The following applies: 1 μM, Table 3, read-out: Metabolic Stability Half-life, mouse. As for the experimental part: as §1, §2, §3, §4, §5, §6, §7, §8
A further data set deals with T1, MDR1 (Homo sapiens, UniProt P08183).
T1 construct: expressed in transfected cells; host or cells: MDCK-MDR1 cells (MDCK host)
T1 sequence (P08183 whole entry): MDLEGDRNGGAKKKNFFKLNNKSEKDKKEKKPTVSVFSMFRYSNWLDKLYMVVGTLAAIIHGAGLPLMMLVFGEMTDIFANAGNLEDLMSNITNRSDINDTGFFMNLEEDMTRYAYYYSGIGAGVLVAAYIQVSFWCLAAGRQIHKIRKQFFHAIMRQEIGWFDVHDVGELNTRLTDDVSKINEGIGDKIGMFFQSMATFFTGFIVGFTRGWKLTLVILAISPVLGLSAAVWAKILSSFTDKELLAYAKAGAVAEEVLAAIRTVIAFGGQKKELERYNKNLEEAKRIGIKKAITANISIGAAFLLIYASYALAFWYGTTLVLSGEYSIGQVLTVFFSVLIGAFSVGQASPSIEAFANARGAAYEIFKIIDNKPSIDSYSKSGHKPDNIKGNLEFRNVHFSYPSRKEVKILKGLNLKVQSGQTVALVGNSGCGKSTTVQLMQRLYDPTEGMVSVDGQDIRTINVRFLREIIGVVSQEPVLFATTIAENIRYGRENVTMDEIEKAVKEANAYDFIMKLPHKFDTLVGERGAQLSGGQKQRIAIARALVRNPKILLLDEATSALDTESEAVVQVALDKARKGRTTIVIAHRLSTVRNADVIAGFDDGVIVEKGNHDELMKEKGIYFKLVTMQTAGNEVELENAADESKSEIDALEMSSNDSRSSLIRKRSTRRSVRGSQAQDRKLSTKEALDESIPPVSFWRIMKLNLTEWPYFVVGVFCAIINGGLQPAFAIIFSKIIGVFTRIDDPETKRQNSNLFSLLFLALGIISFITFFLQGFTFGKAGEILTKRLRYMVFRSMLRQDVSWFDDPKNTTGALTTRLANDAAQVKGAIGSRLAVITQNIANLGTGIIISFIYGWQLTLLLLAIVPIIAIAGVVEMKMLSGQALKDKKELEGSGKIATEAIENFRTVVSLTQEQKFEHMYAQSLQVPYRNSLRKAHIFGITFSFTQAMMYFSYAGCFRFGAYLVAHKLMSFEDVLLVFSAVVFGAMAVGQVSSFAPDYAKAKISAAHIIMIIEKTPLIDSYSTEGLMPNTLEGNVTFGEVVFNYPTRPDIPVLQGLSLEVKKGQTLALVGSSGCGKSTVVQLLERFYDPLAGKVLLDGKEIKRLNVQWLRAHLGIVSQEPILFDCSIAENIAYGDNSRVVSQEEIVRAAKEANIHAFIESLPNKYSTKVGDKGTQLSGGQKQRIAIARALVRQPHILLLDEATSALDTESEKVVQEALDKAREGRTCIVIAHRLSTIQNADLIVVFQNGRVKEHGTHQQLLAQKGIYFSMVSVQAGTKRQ
The experiment in a line: MDCK-MDR1 permeability / efflux assay. The class given is in vitro ADME, canine. The following applies: dog, MDCK-MDR1, pH 7.4, MDCK-MDR1, 1 μM, 2 hours; Table 3; read-out: MDCK-MDR1 Efflux ratio. As for the experimental part: To prepare transport buffer (HBSS with 10 mM HEPES, pH 7.4), 2.383 g of HEPES and 0.35 g sodium hydrogen carbonate was accurately weighed and added into 900 mL of pure water, then sonicated to dissolve the content. Into the solution was transferred 100 mL of 10×HBSS, and the solution was placed on a stirrer. The pH of the solution was slowly adjusted with sodium hydroxide to 7.4, followed with filtering.
MDCK-MDR1 plate(s) were removed from the incubator. The monolayer was washed the monolayer twice with pre-warmed HBSS (10 mM HEPES, pH 7.4). Then the plate(s) were incubated at 37° C. for 30 minutes.
Propranolol was used as the high permeability marker. Digoxin was used as the substrate of […] (MDR1). Stock solutions of test compound(s) and digoxin in DMSO at 0.2 mM were prepared and diluted with HBSS (10 mM HEPES, pH 7.4) to get 1 μM working solutions. Stock solutions of propranolol in DMSO at 1 mM was prepared and diluted with HBSS (10 mM HEPES, pH 7.4) to get 5 μM working solutions.
To determine the rate of drug transport in the apical to basolateral direction, 125 μL of the working solution was added to the Transwell insert (apical compartment), and a 50 μL sample was immediately transferred from the apical compartment to 200 μL quenching solvents (acetonitrile with 100 nM alprazolam, 200 nM caffeine, 200 nM labetalol and 100 nM tolbutamide) in a new 96-well plate as the initial donor sample (A-B). The plate was shaken at 1000 rpm for 10 minutes. The wells in the receiver plate (basolateral compartment) were filled with 235 μL of transport buffer. All incubations were performed in duplicate.
To determine the rate of drug transport in the basolateral to apical direction, 285 μL of the 1 μM working solution was added to the receiver plate wells (basolateral compartment), and a 50 μL sample was immediately transferred from the basolateral compartment to 200 μL quenching solvents (acetonitrile with 100 nM alprazolam, 200 nM caffeine, 200 nM labetalol and 100 nM tolbutamide) in a new 96-well plate as the initial donor sample (B-A). Shake the plate at 1000 rpm 10 minutes. The Transwell insert (apical compartment) was filled with 75 μL of transport buffer. The apical to basolateral direction and the basolateral to apical direction were done at the same time.
The Transwell insert plate was inserted into the basolateral plate, transferred into the incubator and incubated at 37° C. for 2 hours.
At the end of the incubation, 50 μL samples from donor sides (apical compartment for Ap→Bl flux, and basolateral compartment for Bl→Ap flux) and receiver sides (basolateral compartment for Ap→Bl flux, and apical compartment for Bl→Ap flux) were transferred to wells of a new 96-well plate, followed by the addition of 4 volume of quenching solvents (acetonitrile with 100 nM alprazolam, 200 nM caffeine, 200 nM labetalol and 100 nM tolbutamide). Samples were Vortexed for 10 minutes and then centrifuged at 3,220 g for 40 minutes. An aliquot of 100 μL of the supernatant was mixed with an appropriate volume of ultra-pure water before LC-MS/MS analysis.
To determine the Lucifer yellow leakage after 2-hour transport period, Lucifer yellow working solutions were prepared by diluting the stock solution with HBSS (10 mM HEPES, pH 7.4) to reach the final concentration of 100 μM. To the apical compartment, 100 μL of the Lucifer yellow solution were added. The plate(s) were incubated at 37° C. for 30 minutes and 80 μL was directly removed from the apical and basolateral wells and transferred to new 96 wells plates. Lucifer yellow fluorescence (to monitor monolayer integrity) was measured in a fluorescence plate reader at 485 nm excitation and 530 nm emission.

The next data set concerns HCT116 colorectal cells. The data set can be described thus: Cell viability assay (CellTiter-Glo) in HCT116 cells. As to conditions: Homo sapiens, HCT-116, 72h, CellTiter-Glo, read-out: HCT116 Assay (IC50). The class given is cell-based. The method, then: HCT116 colorectal cells were used in these experiments. HCT116 cells were obtained from ATCC. The CellTiter-Glo® Luminescent Cell Viability Assay Reagent was obtained from Promega.
Into a 96-well plate, 3000 HCT116 cells were seeded with 100 μL of media (McCoy's 5A Medium supplemented with 10% FBS, 100 units penicillin, and 100 μg streptomycin per mL) 24h before the experiment. For compound treatment, the liquid handling system-Pico machine was used to prepare all the compounds. Each master plate contained serial dilution of 2 compounds, including the control compound E7820. 10 mM compound stock was added to each well of the assay plate to give final concentrations of […], 0.003, 0.002 and 0 μM. Each concentration was tested in triplicate. After 72h, cell viability was determined using CellTiter-Glo Luminescent Cell Viability Assay Reagent following the manufacturer's recommended protocol. Briefly, equilibrate the assay plate and its contents at room temperature for approximately 30 minutes. 100 μL of CellTiter-Glo reagent was added to each well of the assay plate and the contents were mixed for 2 minutes at 500 rpm on an orbital shaker to induce cell lysis (Fisherbrand). The plate was incubated at room temperature for 10 minutes to stabilize luminescent signal. Then the plate was immediately placed in a plate reader (PerkinElmer Multimode Plate Reader Envision2105) and the luminescence signal (0.5 second per well integration time) was determined. IC50 values were calculated using Graphpad Prism 9 software.
Cell viability assays were performed to compare the potency of Compound 1 to Compound 143.

In brackets after ≈: the same amount, converted by molar mass.

With `Cc1ccc(NS(=O)(=O)c2ccn3ccnc3c2)c2[nH]cc(C#N)c12` [Compound 39], the concentration in solution in data set [1] (solubility at 2 h) came to 1.24 µM (≈ 0.436 µg/mL). Also, the half-life at 1 µM amounted to 69.4 min in data set [2] and 34 min in data set [3]. For the same molecule, at MDR1, the efflux ratio at 2 h, 1 µM was 50.1.
`Cc1ncc(S(=O)(=O)Nc2ccc(C)c3c(C#N)c[nH]c23)o1` [Compound 2, N-(3-cyano-4-methyl-1H-indol-7-yl)-2-methyl-oxazole-5-sulfonamide]: the half-maximal inhibitory concentration (IC50) in the data set with HCT116 colorectal cells was less than 500 nM. In data set [1], this molecule displayed a solubility at 2 h of 292 µM (≈ 92.4 µg/mL). In addition, the values for the half-life at 1 µM in data set [2] and in data set [3] were more than 231 min and 161 min, respectively. Besides, the efflux ratio at 2 h, 1 µM at MDR1 was found to be 6.74.
The corresponding values for `Cc1cc(S(=O)(=O)Nc2ccc(C)c3c(C#N)c[nH]c23)sn1` [Compound 57] are less than 500 nM, 294 µM (≈ 97.6 µg/mL), 33.4 min, 61.5 min and 4.84.
Consider `Cc1ncc(S(=O)(=O)Nc2ccc(C)c3c(Cl)c[nH]c23)s1` [Compound 20, N-(3-chloro-4-methyl-1H-indol-7-yl)-2-methyl-thiazole-5-sulfonamide], for which, in the data set on HCT116 colorectal cells, the IC50 was less than 500 nM. The solubility at 2 h in data set [1] amounted to 1.91 µM (≈ 0.653 µg/mL). Further, the half-life at 1 µM in data set [2] came out at 23.7 min. In addition, the efflux ratio at 2 h, 1 µM on MDR1 is 1.11.

(Values after US20260116874A1, “HETEROAROMATIC INDOLESULFONAMIDES” (SEED Therapeutics, Inc., priority 2023, published 2026).)
